The record followed here is US6046329A, “Uracil derivatives” (Byk Gulden Lomberg Chemische Fabrik GmbH, priority 1994, dated 2000).

The target of one experiment is T1, α1A receptor (Rattus norvegicus, UniProt P43140).
T1 construct: membranes from rat brain cortex; from tissue; host or cells: rat brain cortex membranes
T1 sequence (P43140 1-466): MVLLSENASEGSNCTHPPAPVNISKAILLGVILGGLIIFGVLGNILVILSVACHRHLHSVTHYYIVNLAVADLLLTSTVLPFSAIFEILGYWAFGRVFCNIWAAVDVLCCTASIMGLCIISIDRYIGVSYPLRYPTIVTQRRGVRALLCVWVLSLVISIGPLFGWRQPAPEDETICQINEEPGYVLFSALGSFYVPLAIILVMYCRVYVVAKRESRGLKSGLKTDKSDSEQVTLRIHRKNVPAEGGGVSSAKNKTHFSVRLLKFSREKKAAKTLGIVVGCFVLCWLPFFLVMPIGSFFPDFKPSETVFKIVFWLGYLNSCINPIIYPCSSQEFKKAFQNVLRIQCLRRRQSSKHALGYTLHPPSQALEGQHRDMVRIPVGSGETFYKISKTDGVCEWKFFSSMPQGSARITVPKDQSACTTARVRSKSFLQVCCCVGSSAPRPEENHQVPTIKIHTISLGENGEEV
Description: Radioligand binding with [3H]prazosine, affinity for α1A receptor subtype. The settings on record: membranes from rat brain cortex, IC50 corrected according to Cheng and Prusoff, read-out: Receptor affinity α1A, expressed in pKI values (converted). The method, then:
(§1) The affinity of substances for α1 receptor subtypes was determined in radioligand binding studies using [^3 H]prazosine as a radioligand. 50-200 μg of membranes from rat brain cortex were incubated in a total volume of 0.5-1 ml with [^3 H]prazosine (0.2 to 0.5 nmol/l) in the presence of rising concentrations of substances. The incubation buffer used was 50 mmol/l tris/HCl pH 7.5, 1 mmol/l EDTA, 0.1 mmol/l PMSF. The nonspecific binding was determined in separate batches in the presence of 10 μmol/l of phentolamine or 1 μmol/l of prazosine. After 1 h at 37° C., the bound radioactivity was separated from the free radioactivity by rapid filtration of the incubation batch at 0° C. through glass fiber filters. The filters were washed twice with 3.5 ml each of cold filtration buffer (50 mmol/l tris/HCl pH 7.4, 10 mmol/l MgCl2, 10% polyethylene glycol 6000). The filter-bound radioactivity was determined by liquid scintillation counting. Substances with subtype selectivity for the α1 receptor subtypes were tested again in the presence of 3 nmol/l of WB 4101. WB4101 blocks the binding of [^3 H]prazosine to the α1A receptor subtype and the remaining binding corresponds to that to the α1B receptor.
(§2) For each substance, dose-response curves were plotted by means of nonlinear regression using the Inplot program (GraphPad, Sorento, Calif., USA). IC50 values were corrected by the concentration of the radioligand employed according to the formula of Cheng and Prusoff. The resulting KI values (see following table) represent the affinity of the respective substance for the tested receptor. The compounds according to the invention investigated according to the model illustrated in greater detail above have been provided in the following table with numbers which correspond to the numbers of these compounds in the examples.

The target of another experiment is T2, α1B receptor (Rattus norvegicus, UniProt P15823).
T2 construct: membranes from rat brain cortex; from tissue; host or cells: rat brain cortex membranes
T2 sequence (P15823 1-515): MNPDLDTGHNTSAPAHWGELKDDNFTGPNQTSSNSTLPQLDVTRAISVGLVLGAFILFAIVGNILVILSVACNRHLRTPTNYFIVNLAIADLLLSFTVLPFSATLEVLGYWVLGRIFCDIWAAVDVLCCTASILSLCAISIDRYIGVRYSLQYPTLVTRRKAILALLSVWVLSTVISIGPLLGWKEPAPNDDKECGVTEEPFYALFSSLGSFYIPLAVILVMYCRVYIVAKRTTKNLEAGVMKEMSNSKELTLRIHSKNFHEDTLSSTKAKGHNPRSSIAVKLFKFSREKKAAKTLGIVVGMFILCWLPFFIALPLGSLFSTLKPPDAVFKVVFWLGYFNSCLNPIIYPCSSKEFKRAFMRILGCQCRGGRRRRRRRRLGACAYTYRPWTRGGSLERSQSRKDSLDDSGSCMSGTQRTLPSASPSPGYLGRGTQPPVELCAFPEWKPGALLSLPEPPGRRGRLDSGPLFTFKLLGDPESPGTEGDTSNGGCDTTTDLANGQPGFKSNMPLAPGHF
In words: Radioligand binding with [3H]prazosine (in the presence of WB 4101), affinity for α1B receptor subtype. The conditions noted are these: membranes from rat brain cortex, subtype-selective substances tested again in the presence of 3 nmol/l WB 4101, Cheng and Prusoff, read-out: Receptor affinity α1B, expressed in pKI values (converted). The method, then:
as §1, §2

For a further experiment, the target named is T3, 5-HT1A receptor (Sus scrofa, UniProt A0A4X1UTF5).
T3 construct: membranes from pig brain cortex; from tissue; host or cells: pig brain cortex membranes
T3 sequence (A0A4X1UTF5 1-422): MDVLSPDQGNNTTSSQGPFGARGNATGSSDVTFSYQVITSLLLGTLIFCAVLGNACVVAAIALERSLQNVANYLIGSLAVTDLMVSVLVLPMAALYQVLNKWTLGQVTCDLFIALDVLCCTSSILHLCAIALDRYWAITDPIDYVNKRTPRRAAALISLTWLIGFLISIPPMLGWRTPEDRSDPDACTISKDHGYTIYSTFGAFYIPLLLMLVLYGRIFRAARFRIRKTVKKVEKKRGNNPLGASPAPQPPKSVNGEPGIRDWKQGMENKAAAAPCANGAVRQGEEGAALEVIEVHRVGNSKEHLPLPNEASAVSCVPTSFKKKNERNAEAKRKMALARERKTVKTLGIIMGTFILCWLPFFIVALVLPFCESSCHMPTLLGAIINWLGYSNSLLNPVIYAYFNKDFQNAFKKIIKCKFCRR
Description: Radioligand binding with [3H]8-OH-DPAT, affinity for 5-HT1A receptor. The settings on record: membranes from pig brain cortex, IC50 corrected according to Cheng and Prusoff, read-out: Receptor affinity 5-HT1A, expressed in pKI values (converted). The method, then: The affinity of substances for the 5-HT1A receptor was determined in radioligand binding studies using [^3 H]8-OH-DPAT as a radioligand. 50-150 μg of membranes from pig brain cortex were incubated in a total volume of 0.25-0.5 ml with [^3 H]8-OH-DPAT (0.2 to 0.4 nmol/l) in the presence of rising concentrations of substances. The incubation buffer used was 50 mmol/l tris/HCl pH 8.2, 1 mmol/l MnCl2. The nonspecific binding was determined in separate batches in the presence of 10 μmol/l of 5-HT. After 30 min at 23° C., the bound radioactivity was separated from the free radioactivity by rapid filtration of the incubation batch at 0° C. through glass fiber filters. The filters were washed twice with 3.5 ml each of cold filtration buffer (50 mmol/l tris/HCl pH 7.4, 10 mmol/l MgCl2, 10% polyethylene glycol 6000). The filter-bound radioactivity was determined by liquid scintillation counting.
as §2

For `CON=Cc1c(NCCCN2CCN(c3ccccc3OC)CC2)n(C)c(=O)n(C)c1=O` [Compound 15, 1,3-Dimethyl-5-methoxyiminomethyl-6-[[3-[4-(2-methoxyohenyl)-1-piperazinyl]propyl]amino]-2,4(1H,3H)-pyrimidinedione], the Ki is 5.01 nM on α1A receptor, 126 nM on α1B receptor and 1.58 nM at 5-HT1A receptor.

Turning to `COc1ccccc1N1CCN(CCCNc2c(C=NO)c(=O)n(C)c(=O)n2C)CC1` [Compound 16, 1,3-Dimethyl-5-hydroxyiminomethyl-6-[[3-[4-(2-methoxphenyl)-1-piperazinyl]propyl]amino]-2,4(1H,3H)-pyrimidinedione], the Ki on α1A receptor is 2 nM; at α1B receptor, 50.1 nM; at 5-HT1A receptor it was 1 nM.

Consider `COc1ccccc1N1CCN(CCCNc2c(OC)c(=O)n(C)c(=O)n2C)CC1` [Compound 17], for which the Ki on α1A receptor was 50.1 nM; on α1B receptor, 50.1 nM; on 5-HT1A receptor, 2.51 nM.

On to `COc1ccccc1N1CCN(CCCNC2=CC(=O)N(C)S(=O)(=O)N2C)CC1` [Compound 18, 5-{3-[4-(2-Methoxyphenyl)piperazin-1-yl]-propylamino}-2,6-dimethyl-1,1-dioxo-6H-[1,2,6]thiadiazin-3-one], for which the Ki was 6.31 nM at α1A receptor, 126 nM on α1B receptor and 15.8 nM at 5-HT1A receptor.

In the case of `COc1ccccc1N1CCN(CCCNc2cc(=S)n(C)c(=O)n2C)CC1` [Compound 19, 6-{3-[4-(2-Methoxyphenyl)piperazin-1-yl]-propylamino}-1,3-dimethyl-4-thioxo-3,4-dihydro-1H-pyrimidin-2-one], the results for the Ki on α1A receptor, on α1B receptor and at 5-HT1A receptor were 31.6 nM, 31.6 nM and 10 nM, respectively.

`COc1cc(N)ccc1N1CCN(CCCNc2c(C)c(=O)n(C)c(=O)n2C)CC1` [Compound 20, 1,3,5-Trimethyl-6-[[3-[4-(4-amino-2-methoxyphenyl)-1-piperazinyl]propyl]amino]-2,4(1H,3H)-pyrimidinedione]: the Ki at α1A receptor was 100 nM; on α1B receptor, 6310 nM; on 5-HT1A receptor, 2 nM.

As for `COc1cc(NC(C)=O)ccc1N1CCN(CCCNc2c(C)c(=O)n(C)c(=O)n2C)CC1` [Compound 21, 1,3,5-Trimethyl-6-[[3-[4-(4-acetylamino-2-methoxyphenyl)-1-piperazinyl]propyl]amino]-2,4(1H,3H)pyrimidinedione], the Ki on α1A receptor is above 10000 nM; on α1B receptor, above 10000 nM; at 5-HT1A receptor, 5.01 nM.
